A short description of data set [1]: Moisture content of powder after atmospheric spray freeze drying, original equipment. In kind it is physicochemical. Conditions: 15 wt % mannitol aqueous solution; dried 1 hr at around -15° C., then raised to room temperature within 30 minutes. The procedure: The apparatus is allowed to run for approximately 5 to 15 minutes to reach the desired temperature in the chamber 110, 210, 310 via gas cooled by a refrigeration system providing gas flow into the chamber 110 through the porous wall. The aqueous solution or suspension of the substances to be dried is then sprayed using the atomizer 102, 202, 302 and frozen simultaneously at a chosen temperature by the surrounding curtain of liquid nitrogen generated from ring nozzle 218, 318 or an equivalent such as cryogenic flow from nozzles 118 through porous sidewalls of chamber 110. The frozen powder is conveyed down to the exit filter 122, 222, 322 by the concurrent downstream flow. After spray freezing, drying begins. The frozen powder collected on the exit filter 122, 222, 322, at the bottom is dried continuously at atmospheric pressure until the target moisture of the frozen powder is removed by the cold desiccated gas stream. After atmospheric spray-freeze drying, a loose powder remains on the exit filter 122, 222, 322. This powder can easily be broken up into free flowing, dry porous particles usually of approximately the same size and shape as the original frozen droplets.
In one example, powder was produced using the method described above. […] The moisture content was measured to be only 0.9 wt %.

Data set [2] in a line: Moisture content of powder after ASFD run, second generation equipment. In kind it is physicochemical. As to conditions: 10% BGG aqueous solution, 50 ml; spray gas 5 SCFM, drying 20 SCFM; after three hours and thirty minutes.
Method: A typical ASFD run to dry Bovine Gamma Globulin (BGG) was conducted per a stepwise procedure like the following example. A solution of BGG was prepared such that the BGG constituted 10% by weight of an aqueous solution. Once the inner chamber was cooled to a temperature of −140° F., 50 ml of solution was sprayed at a rate of 1 ml per second and at a pressure of 40 psi into the reactor chamber after the flow of cooling gas had been decreased to 5 SCFM. A flow rate of 20 SCFM was then set for drying. Temperature during the first hour was set at 30° F., and increased by five degrees at hour two and hour three. […] After three hours and thirty minutes the powder was removed from the chamber and tested for water content.

Compound `OC[C@@H](O)[C@@H](O)[C@H](O)[C@H](O)CO` [mannitol] registered a moisture content in data set [1] of 0.9 wt %.

As to Bovine Gamma Globulin [BGG], the moisture content in data set [2] is reported as 4.2%.

The record behind these values is patent US9863701B2, “Compositions and methods for atmospheric spray freeze drying” (Aerosol Therapeutics, LLC, priority 2013, dated 2018).
